pIC50: −log10 of the molar value.
Key:
[1] = CuAAC (i,i+4) side-chain stapling of azidolysine with propargylglycine or O-propargylserine; CuSO4·5H2O (1 eq), Na ascorbate (5 eq); from purified linear peptides; conditions: the molecule shown is the open-chain precursor, tBuOH/H2O 1:2, 0.5 mM, 25.0 °C
[2] = CuAAC (i,i+4) side-chain stapling of azidolysine with propargylglycine or O-propargylserine; CuSO4·5H2O (1 eq), Na ascorbate (5 eq); from crude linear peptides; conditions: the molecule shown is the open-chain precursor, tBuOH/H2O 1:2, 0.5 mM, 25.0 °C
[3] = system: β2AR (β2AR-Δ4 construct, C265 bimane-labelled); assay: Conformational bimane fluorescence shift assay on purified mBBr-labelled β2AR; assay type: biochemical; conditions: increasing concentrations of ISO, saturating at 250 μM and 500 μM
Method: To further investigate their pharmacological profiles, selected peptidomimetics were tested in a bimane fluorescence shift assay (see ESI ^†). […] Stimulation of purified, C265 fluorophore-labelled β2AR with increasing concentrations of ISO results in a concentration-dependent decrease in the fluorescence intensity (FI) and a red-shift of the maximum emission wavelength (λmax) of the bimane-fluorophore probe (Fig. 5A).
Bimane-fluorescence curves in presence of agonist or peptidomimetic alone or in combination were normalised to that of the receptor alone.
Conformational biman e fluorescence assay
Baculovirus es containing the β2AR-Δ4 construct (full-length β 2AR with four mutated
cystein es (C77V, C327S , C378 A and C406A10,11) were generated as pr eviousl y d escribed b y
Rosenbaum et al.12 The modi fied β 2AR wa s ex pre s sed in S f9 insect cel ls using r ecombi na nt
baculovi rus and pu rified b y M1-anti- FLAG im munoaffinit y chr omatograph y. The F LAG -
purified receptor was l abe lled with monobromobimane (mBBr) and purified b y alprenolol
affinit y chr omato graph y as described b y Yao et al. 13 with one minor change; the modified β2AR
was labelled with an excess of 10 µM mBBr (instead of equivalent amounts of β 2AR and
mBBr). […]
ligands and peptide s were subtracted from the samples. Data was analysed b y use of the […]

[4] = molecular target: T1, β2-adrenergic receptor (β2AR) (Homo sapiens, UniProt P07550); assay: Membrane-based cAMP accumulation assay (HTRF), ISO-induced cAMP formation; assay type: biochemical
T1 construct: expressed in transfected cells; host or cells: HEK293 cells stably overexpressing β2AR; membrane fractions used
T1 sequence (P07550 whole entry, species assumed): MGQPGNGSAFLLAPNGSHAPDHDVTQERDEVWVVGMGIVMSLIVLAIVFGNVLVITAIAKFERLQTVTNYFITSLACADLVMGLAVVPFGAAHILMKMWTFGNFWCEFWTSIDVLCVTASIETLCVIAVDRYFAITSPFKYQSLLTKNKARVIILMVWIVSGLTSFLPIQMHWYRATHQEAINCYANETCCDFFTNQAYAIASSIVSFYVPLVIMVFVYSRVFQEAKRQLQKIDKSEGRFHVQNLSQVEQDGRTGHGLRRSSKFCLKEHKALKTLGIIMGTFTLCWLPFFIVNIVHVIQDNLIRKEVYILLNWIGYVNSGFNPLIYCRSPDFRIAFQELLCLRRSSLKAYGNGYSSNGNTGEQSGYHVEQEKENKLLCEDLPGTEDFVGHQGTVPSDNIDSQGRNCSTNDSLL
Method: To allow the peptidomimetics to interact with the intracellular G protein binding pocket they were tested in a membrane-based cAMP accumulation assay (see ESI ^†). […] The cAMP levels in absence of peptidomimetics were normalised to the basal (0%) and maximal efficacy (100%) of ISO in presence of vehicle (DMSO).
overexpressing the β2AR8 were prepared and the peptidomimetics tested as previously
peptidomimetics diluted in HBSS buffer supplemented with 20 mM HEPES pH 7.5, 0.1 %
Elmer) at room temperature (RT) for 15 min. Then isoproterenol solutions for the
prepared in ligand buffer (HBSS buffer supplemented with 20 mM HEPES pH 7.5, 0.1 %
added to the wells and incubated for 30 min at room temperature. To detect cAMP formation
the HTRF cAMP d ynamic 2 assa y kit from CisBio (cat no. 2AM4PEC) was used according
to the manufactures protocol. The absolute cAMP levels were determined using a cAMP
standard curve and norm alised to the maximal cAMP response obtained by full isoproterenol
stimulation alone. Significant differen ces b etween IS O alon e and in presence of the p eptides
were calculat ed statisticall y b y use of on e- wa y ANOVA in the GraphPad Prism software.

With `C#CC[C@H](NC(=O)[C@H](CCCNC(=N)N)NC(=O)[C@H](CCC(N)=O)NC(=O)[C@@H](NC(=O)[C@@H](CCCCN=[N+]=[N-])NC(=O)[C@H](CC(=O)O)NC(=O)[C@H](CCCNC(=N)N)NC(C)=O)[C@@H](C)CC)C(=O)N[C@@H](Cc1cnc[nH]1)C(=O)N[C@@H](CC(C)C)C(=O)N[C@@H](CCCNC(=N)N)C(=O)N[C@@H](CCC(N)=O)C(=O)N[C@@H](Cc1ccc(O)cc1)C(=O)N[C@@H](CCC(=O)O)C(=O)N[C@@H](CC(C)C)C(=O)N[C@@H](CC(C)C)C(=O)O` [Ac-R-D-(D-K(N3))-I-Q-R-Pra-H-L-R-Q-Y-E-L-L-OH] the ring closure, isolated yield ([1]; 21-membered ring, 0.25 h) was 56%.
For `C#CCOC[C@H](NC(=O)[C@H](CCCNC(=N)N)NC(=O)[C@H](CCC(N)=O)NC(=O)[C@@H](NC(=O)[C@@H](CCCCN=[N+]=[N-])NC(=O)[C@H](CC(=O)O)NC(=O)[C@H](CCCNC(=N)N)NC(C)=O)[C@@H](C)CC)C(=O)N[C@@H](Cc1cnc[nH]1)C(=O)N[C@@H](CC(C)C)C(=O)N[C@@H](CCCNC(=N)N)C(=O)N[C@@H](CCC(N)=O)C(=O)N[C@@H](Cc1ccc(O)cc1)C(=O)N[C@@H](CCC(=O)O)C(=O)N[C@@H](CC(C)C)C(=O)N[C@@H](CC(C)C)C(=O)O` [Ac-R-D-(D-K(N3))-I-Q-R-Ser(O-propargyl)-H-L-R-Q-Y-E-L-L-OH], the ring closure, isolated yield ([1]; 23-membered ring) was 40%.
For `C#CC[C@H](NC(=O)[C@H](CCCC)NC(=O)[C@H](CCCNC(=N)N)NC(=O)[C@H](CCC(N)=O)NC(=O)[C@@H](CCCCN=[N+]=[N-])NC(=O)[C@@H](NC(=O)[C@H](CC(=O)O)NC(=O)[C@H](CCCNC(=N)N)NC(C)=O)[C@@H](C)CC)C(=O)N[C@@H](CC(C)C)C(=O)N[C@@H](CCCNC(=N)N)C(=O)N[C@@H](CCC(N)=O)C(=O)N[C@@H](Cc1ccc(O)cc1)C(=O)N[C@@H](CCC(=O)O)C(=O)N[C@@H](CC(C)C)C(=O)N[C@@H](CC(C)C)C(=O)O` [Ac-R-D-I-(D-K(N3))-Q-R-Nle-Pra-L-R-Q-Y-E-L-L-OH], the ring closure, overall yield ([2]; 21-membered ring) was 11%.
In the case of `C#CCOC[C@H](NC(=O)[C@H](CCCC)NC(=O)[C@H](CCCNC(=N)N)NC(=O)[C@H](CCC(N)=O)NC(=O)[C@@H](CCCCN=[N+]=[N-])NC(=O)[C@@H](NC(=O)[C@H](CC(=O)O)NC(=O)[C@H](CCCNC(=N)N)NC(C)=O)[C@@H](C)CC)C(=O)N[C@@H](CC(C)C)C(=O)N[C@@H](CCCNC(=N)N)C(=O)N[C@@H](CCC(N)=O)C(=O)N[C@@H](Cc1ccc(O)cc1)C(=O)N[C@@H](CCC(=O)O)C(=O)N[C@@H](CC(C)C)C(=O)N[C@@H](CC(C)C)C(=O)O` [Ac-R-D-I-(D-K(N3))-Q-R-Nle-Ser(O-propargyl)-L-R-Q-Y-E-L-L-OH], the ring closure, overall yield ([2]; 23-membered ring) was 13%.
With `C#CC[C@H](NC(=O)[C@H](CCCNC(=N)N)NC(=O)[C@H](CC(C)C)NC(=O)[C@H](Cc1cnc[nH]1)NC(=O)[C@@H](CCCCN=[N+]=[N-])NC(=O)[C@H](CCCNC(=N)N)NC(=O)[C@H](CCC(N)=O)NC(=O)[C@@H](NC(=O)[C@@H](NC(=O)[C@H](CC(=O)O)NC(=O)[C@H](CCCNC(=N)N)NC(C)=O)[C@@H](C)CC)[C@@H](C)CC)C(=O)N[C@@H](Cc1ccc(O)cc1)C(=O)N[C@@H](CCC(=O)O)C(=O)N[C@@H](CC(C)C)C(=O)N[C@@H](CC(C)C)C(=O)O` [Ac-R-D-I-I-Q-R-(D-K(N3))-H-L-R-Pra-Y-E-L-L-OH] the ring closure, overall yield ([2]; 21-membered ring, 1.0 h) was 26%.
For `C#CCOC[C@H](NC(=O)[C@H](CCCNC(=N)N)NC(=O)[C@H](CC(C)C)NC(=O)[C@H](Cc1cnc[nH]1)NC(=O)[C@@H](CCCCN=[N+]=[N-])NC(=O)[C@H](CCCNC(=N)N)NC(=O)[C@H](CCC(N)=O)NC(=O)[C@@H](NC(=O)[C@@H](NC(=O)[C@H](CC(=O)O)NC(=O)[C@H](CCCNC(=N)N)NC(C)=O)[C@@H](C)CC)[C@@H](C)CC)C(=O)N[C@@H](Cc1ccc(O)cc1)C(=O)N[C@@H](CCC(=O)O)C(=O)N[C@@H](CC(C)C)C(=O)N[C@@H](CC(C)C)C(=O)O` [Ac-R-D-I-I-Q-R-(D-K(N3))-H-L-R-Ser(O-propargyl)-Y-E-L-L-OH], the ring closure, overall yield ([2]; 23-membered ring, 3.0 h) was 11%.
Work on `C#CC[C@H](NC(=O)[C@H](CCCNC(=N)N)NC(=O)[C@H](CC(C)C)NC(=O)[C@H](Cc1cnc[nH]1)NC(=O)[C@H](CCCCN=[N+]=[N-])NC(=O)[C@H](CCCNC(=N)N)NC(=O)[C@H](CCC(N)=O)NC(=O)[C@@H](NC(=O)[C@@H](NC(=O)[C@H](CC(=O)O)NC(=O)[C@H](CCCNC(=N)N)NC(C)=O)[C@@H](C)CC)[C@@H](C)CC)C(=O)N[C@@H](Cc1ccc(O)cc1)C(=O)N[C@@H](CCC(=O)O)C(=O)N[C@@H](CC(C)C)C(=O)N[C@@H](CC(C)C)C(=O)O` [Ac-R-D-I-I-Q-R-K(N3)-H-L-R-Pra-Y-E-L-L-OH] yielded a ring closure, overall yield ([2]; 21-membered ring, 3.0 h) of 10%.
With `C#CCOC[C@H](NC(=O)[C@H](CCCNC(=N)N)NC(=O)[C@H](CC(C)C)NC(=O)[C@H](Cc1cnc[nH]1)NC(=O)[C@H](CCCCN=[N+]=[N-])NC(=O)[C@H](CCCNC(=N)N)NC(=O)[C@H](CCC(N)=O)NC(=O)[C@@H](NC(=O)[C@@H](NC(=O)[C@H](CC(=O)O)NC(=O)[C@H](CCCNC(=N)N)NC(C)=O)[C@@H](C)CC)[C@@H](C)CC)C(=O)N[C@@H](Cc1ccc(O)cc1)C(=O)N[C@@H](CCC(=O)O)C(=O)N[C@@H](CC(C)C)C(=O)N[C@@H](CC(C)C)C(=O)O` [Ac-R-D-I-I-Q-R-K(N3)-H-L-R-Ser(O-propargyl)-Y-E-L-L-OH] the ring closure, overall yield ([2]; 23-membered ring, 2.0 h) was 14%.
Compound `C#CC[C@H](NC(=O)[C@H](CCCC)NC(=O)[C@H](CCCNC(=N)N)NC(=O)[C@H](CCC(N)=O)NC(=O)[C@H](CCCCN=[N+]=[N-])NC(=O)[C@@H](NC(=O)[C@H](CC(=O)O)NC(=O)[C@H](CCCNC(=N)N)NC(C)=O)[C@@H](C)CC)C(=O)N[C@@H](CC(C)C)C(=O)N[C@@H](CCCNC(=N)N)C(=O)N[C@@H](CCC(N)=O)C(=O)N[C@@H](Cc1ccc(O)cc1)C(=O)N[C@@H](CCC(=O)O)C(=O)N[C@@H](CC(C)C)C(=O)N[C@@H](CC(C)C)C(=O)O` [Ac-R-D-I-K(N3)-Q-R-Nle-Pra-L-R-Q-Y-E-L-L-OH] has a ring closure, overall yield ([2]; 21-membered ring) of 10%.
With `C#CCOC[C@H](NC(=O)[C@H](CCCC)NC(=O)[C@H](CCCNC(=N)N)NC(=O)[C@H](CCC(N)=O)NC(=O)[C@H](CCCCN=[N+]=[N-])NC(=O)[C@@H](NC(=O)[C@H](CC(=O)O)NC(=O)[C@H](CCCNC(=N)N)NC(C)=O)[C@@H](C)CC)C(=O)N[C@@H](CC(C)C)C(=O)N[C@@H](CCCNC(=N)N)C(=O)N[C@@H](CCC(N)=O)C(=O)N[C@@H](Cc1ccc(O)cc1)C(=O)N[C@@H](CCC(=O)O)C(=O)N[C@@H](CC(C)C)C(=O)N[C@@H](CC(C)C)C(=O)O` [Ac-R-D-I-K(N3)-Q-R-Nle-Ser(O-propargyl)-L-R-Q-Y-E-L-L-OH] the ring closure, overall yield ([2]; 23-membered ring, 1.0 h) was 15%.
Work on `C#CC[C@H](NC(=O)[C@H](CCCNC(=N)N)NC(=O)[C@H](CCC(N)=O)NC(=O)[C@@H](NC(=O)[C@H](CCCCN=[N+]=[N-])NC(=O)[C@H](CC(=O)O)NC(=O)[C@H](CCCNC(=N)N)NC(C)=O)[C@@H](C)CC)C(=O)N[C@@H](Cc1cnc[nH]1)C(=O)N[C@@H](CC(C)C)C(=O)N[C@@H](CCCNC(=N)N)C(=O)N[C@@H](CCC(N)=O)C(=O)N[C@@H](Cc1ccc(O)cc1)C(=O)N[C@@H](CCC(=O)O)C(=O)N[C@@H](CC(C)C)C(=O)N[C@@H](CC(C)C)C(=O)O` [Ac-R-D-K(N3)-I-Q-R-Pra-H-L-R-Q-Y-E-L-L-OH] yielded a ring closure, isolated yield ([1]; 21-membered ring, 0.25 h) of 36%.
With `C#CCOC[C@H](NC(=O)[C@H](CCCNC(=N)N)NC(=O)[C@H](CCC(N)=O)NC(=O)[C@@H](NC(=O)[C@H](CCCCN=[N+]=[N-])NC(=O)[C@H](CC(=O)O)NC(=O)[C@H](CCCNC(=N)N)NC(C)=O)[C@@H](C)CC)C(=O)N[C@@H](Cc1cnc[nH]1)C(=O)N[C@@H](CC(C)C)C(=O)N[C@@H](CCCNC(=N)N)C(=O)N[C@@H](CCC(N)=O)C(=O)N[C@@H](Cc1ccc(O)cc1)C(=O)N[C@@H](CCC(=O)O)C(=O)N[C@@H](CC(C)C)C(=O)N[C@@H](CC(C)C)C(=O)O` [Ac-R-D-K(N3)-I-Q-R-Ser(O-propargyl)-H-L-R-Q-Y-E-L-L-OH] the ring closure, isolated yield ([1]; 23-membered ring, 1.0 h) was 69%.
With `CC(C)NC[C@H](O)c1ccc(O)c(O)c1` [ISO, (−)-isoproterenol] the “Effect on bimane fluorescence (FI and λmax) / receptor conformation” value [3] was “induces an active receptor conformation in a concentration-dependent manner”.
For `CC[C@H](C)[C@H](NC(=O)[C@H](CC(=O)O)NC(=O)[C@H](CCCNC(=N)N)NC(C)=O)C(=O)N[C@H](C(=O)N[C@@H](CCC(N)=O)C(=O)N[C@@H](CCCNC(=N)N)C(=O)N[C@H]1CCCCn2cc(nn2)C[C@@H](C(=O)N[C@@H](Cc2ccc(O)cc2)C(=O)N[C@@H](CCC(=O)O)C(=O)N[C@@H](CC(C)C)C(=O)N[C@@H](CC(C)C)C(=O)O)NC(=O)[C@H](CCCNC(=N)N)NC(=O)[C@H](CC(C)C)NC(=O)[C@H](Cc2c[nH]cn2)NC1=O)[C@@H](C)CC` [Peptide 10C], the “Maximum efficacy of ISO” value ([4]; ISO CRC in presence of 100 μM peptidomimetic, HEK293 membranes overexpressing β2AR, normalised to ISO with vehicle (100%), mean ± SEM, n = 3, * P < 0.05) was 61.0 ± 4.1* %, the “Basal level (basal cAMP level of the ISO concentration-response curve)” value ([4]; ISO CRC in presence of 100 μM peptidomimetic, HEK293 membranes overexpressing β2AR, normalised to basal (0%) and maximal efficacy (100%) of ISO with vehicle (DMSO), 15 min preincubation, 30 min RT, mean ± SEM, n = 3) was −11.0 ± 4.3% and the “Hill slope of the ISO concentration-response curve” value ([4]; in presence of 100 μM peptidomimetic, mean ± SEM, n = 3) was 0.63 ± 0.06. For the same compound, the pIC50 ([4]; in presence of an ISO concentration corresponding to EC75, 10C up to 200 μM, read-out: IC50 for blocking ISO-induced cAMP formation (estimated)) was 4.26.

Reference: article PMC9077236, “Gs protein peptidomimetics as allosteric modulators of the β2-adrenergic receptor” (RSC Advances, 2018)
